The IC50 is the concentration that gives 50% inhibition. Low values mean greater potency in that assay, high ones weaker potency in that assay. One may read the inhibition as the change of the read-out against control, counted positive when it falls.

We go through 4 compounds from patent publication US11752155B2, “Treatment of autism spectrum disorders, obsessive-compulsive disorder and anxiety disorders” (Rugen Holdings (Cayman) Limited, priority 2016, dated 2023).

Data set [1] concerns the target hERG channel (Homo sapiens (Human), UniProt Q12809). The data set is described as follows: hERG channel inhibition, whole cell patch clamp in HEK293 cells. Format: cell-based. As to conditions: for inhibition at 5 min, 10 µM: human, HEK293 cells stably expressing hERG channel, pH 7.35.
The test system of data set [2] is Sapap3 knockout mice. The data set can be described thus: Grooming Test in Sapap3 knockout mice. Format: in vivo, mouse. The conditions noted are these: for acute effect on excessive self-grooming: single IP dose, Day 1; for tachyphylaxis with repeated weekly dosing: dosed IP on Days 1, 15, 22, 29. On the procedure:
(§1) Animals. The breeding conditions and genotyping methods for Sapap3 and Shank3 complete knockout mice were the same as described in Welch et al. (Nature 2007, 448(7156):894-900) and in Wang et al. (Nat. Commun. 2016, 7:11459), respectively. Homozygous knockout mice and littermate wild type mice of both genders were used at 4 to 8 weeks of age.
(§2) Compound formulation. The test compounds were dissolved in a small volume of dimethyl sulfoxide (DMSO) and diluted in an aqueous solution of 2-hydroxypropyl-beta-cyclodextrin (HP-β-CD) and administered IP. Dosing volume was 10 mL/kg. At 20 minutes after dosing, the mice were subjected to the behavioral test as described below.
(§3) Testing room and apparatus. The test room was maintained under the same conditions as the colony rooms, except the mice were housed in conventional shoe-box cages with food, water, and nesting materials. Animals were housed in the test room 48-72 hours prior to testing, in order to permit the mice to fully acclimate to the test room and conventional housing cages before testing. Tests were conducted in white polyvinyl-fluoride hard-sided foam test arenas (20×20×12 cm). The arenas were indirectly illuminated by dimmable LED light bars placed level with the arena floor and 30 cm away from the external wall of the test arena. This permitted the internal area of the arena to be evenly illuminated at approximately 40 lux. The illumination levels where the mice were housed before testing were about 80-100 lux.
(§4) Testing procedure. Mice were carefully placed into the test arenas 20 minutes after compound administration. Animals were given free exploration of the arena for 10 minutes, after which they were gently sprayed with 4 quick pumps of a water mist (total water volume approximated 1.5-1.7 mL). Mice were then allowed an additional 10 minutes to self-groom and engage in other behaviors before being removed from the arena. All tests were videotaped using cameras mounted above the testing arena and were saved to digital media format using Noldus Media Player software (Noldus Information Technologies, Leesburg, Va.). The mice were only tested once in the acute studies and were repeatedly tested in the sustained effect studies.
(§5) Quantitation of grooming bouts. Analyses of the video recordings were conducted with TopScan behavioral recognition software (Cleversys Inc, Reston, Va.). Configurations were made which scored time spent in grooming. […] These settings permitted automated scoring of grooming by TopScan that corresponded well to manual-scoring of these behaviors by a trained blinded observer using Noldus Observer XT9 (Noldus Information Technologies), with an average corrected kappa of 0.925 (range 0.807-0.983).
(§6) Statistical analyses. Data are presented as means and standard error of the means (SEMs). Analyses were conducted using SPSS 23 (IBM SPSS Statistics, Chicago, Ill.). Time spent in grooming behavior (seconds) over the 10-minute pre- and post-spray time blocks were analyzed with repeated measures analyses of variance (RMANOVA). The pre- and post-spray times were used for the within subject effects and the genotype and compound treatment condition were used as the between subject effects. In sustained effect studies, days were also used for a within subject effect. Some analyses of total groom time were performed in Prism 7.01 (GraphPad Software, La Jolla, Calif.), with one-way ANOVAs to compare genotypes on Day 1 or with RMANOVAs to compare treatment groups within the same genotype across days. Treatments with compounds were compared independently with the vehicle. All post-hoc comparisons were performed with Bonferroni corrections for multiple comparisons to avoid a Type I error. In all cases, a p<0.05 was considered significant.
Next, the effect of two subunit-selective NR2B antagonists administered as a single IP dose and assessed 20 minutes postdose was studied in the Sapap3 knockout mice (n=6-10 mice per treatment group). […]

Data set [3] deals with wild type littermate mice. The data set is described as follows: Grooming Test in wild type littermates of Sapap3 and Shank3 complete knockout mice. Type of data set: in vivo, mouse. The conditions noted are these: for effect on grooming on Day 3 / effect on grooming on Day 5: 3 mg/kg IP on Day 1, wild type littermates; for effect on grooming on Day 1: 3 mg/kg IP, wild type littermates; for acute effect on grooming on Day 1: wild type littermates of Sapap3 knockout mice, dose-dependent. On the procedure: as §1, §2, §3, §4, §5, §6
The wild type littermates of the Sapap3 knockout and Shank3 complete knockout mice were retested after Day 1 compound administration to determine whether the sustained effects were unique to the knockout mice. […]

Data set [4] deals with wild type mice (male C57Bl/6). The data set can be described thus: Novelty Phobia Test in wild type mice. Format: in vivo, mouse. The conditions noted are these: for change in vivo at 3 mg/kg / change in vivo at 10 mg/kg / change in vivo at 30 mg/kg / change in vivo at 0.3 mg/kg / change in vivo at 1 mg/kg: Mus musculus, ip, IP, read-out: Percent Change in Novel Object Number of Nose Touches relative to vehicle control; for pattern of the dose-response function for bouts of nose touching: mouse, in vivo. How it is done: Animals. Male C57Bl/6 mice (18-30 g body weight; 6-8 weeks of age) were obtained from Slaccas (Shanghai, China) and allowed to acclimate to the animal facility for 7 days. Mice were group housed in plastic cages (no more than 4 animals per cage) on wood shavings with nesting material. All animals had free access to food (M01-F, Slaccas) and water. The animal facility was maintained under artificial lighting between 7:00 AM and 7:00 PM in a controlled ambient temperature of 22-24° C. and relative humidity between 50-60%.
Compound formulation. The test compounds were prepared in a vehicle of DMSO and HP-β-CD, and administered IP or PO. The test compounds or vehicle were administered at various times (10-20 minutes) before the behavioral test described below. Dosing volume was 10 mL/kg.
Testing procedure. The behavioral testing apparatus was a rectangular black Plexiglas, 2-chambered box, with no top or bottom (50 cm long, 26 cm wide and 15 cm tall) and allowed for the simultaneous testing of 2 mice. The box was placed on a laboratory bench. The chambers of the testing box were cleaned and fresh paper chip bedding was added between tests. Mice were brought to the experiment room in their home cages on the day of testing. Behavioral tests were conducted between 10:00 AM and 1:00 PM in dim light. After drug administration, a mouse was placed into a test chamber and allowed to explore for 10 minutes. After this habituation period, a novel object (e.g., a toy ball of 3 cm in diameter with spikes) was introduced to the center of the chamber for 5 minutes. For the entire 15-minute test period, video was recorded for offline analysis with Any-maze Video Tracking software (Stoelting Co., Wood Dale, Ill.). The total distance traveled during the entire 15 minutes and the number of bouts that each mouse touched the novel object during the last 5 minutes were measured.
Statistical analyses. Data are presented as means and SEMs. Data were analyzed using one-way analysis of variance (ANOVA; Prism, GraphPad Software Inc., San Diego, Calif.), followed by the post-hoc Dunnett's test to compare test compound-treated groups with the vehicle control. A p value<0.05 was considered significant.

Where [5] appears, read: single dose 1 mg/kg IP on Day 1.

Values joined by “and” are separate entries in the source; they are usually repeats but may differ in a detail not shown here. Identical values can stand only once. “Also recorded” adds a separate entry of the source. Like-named read-outs stand apart in the source and are kept apart here.

Sequence of hERG channel (Q12809 whole entry): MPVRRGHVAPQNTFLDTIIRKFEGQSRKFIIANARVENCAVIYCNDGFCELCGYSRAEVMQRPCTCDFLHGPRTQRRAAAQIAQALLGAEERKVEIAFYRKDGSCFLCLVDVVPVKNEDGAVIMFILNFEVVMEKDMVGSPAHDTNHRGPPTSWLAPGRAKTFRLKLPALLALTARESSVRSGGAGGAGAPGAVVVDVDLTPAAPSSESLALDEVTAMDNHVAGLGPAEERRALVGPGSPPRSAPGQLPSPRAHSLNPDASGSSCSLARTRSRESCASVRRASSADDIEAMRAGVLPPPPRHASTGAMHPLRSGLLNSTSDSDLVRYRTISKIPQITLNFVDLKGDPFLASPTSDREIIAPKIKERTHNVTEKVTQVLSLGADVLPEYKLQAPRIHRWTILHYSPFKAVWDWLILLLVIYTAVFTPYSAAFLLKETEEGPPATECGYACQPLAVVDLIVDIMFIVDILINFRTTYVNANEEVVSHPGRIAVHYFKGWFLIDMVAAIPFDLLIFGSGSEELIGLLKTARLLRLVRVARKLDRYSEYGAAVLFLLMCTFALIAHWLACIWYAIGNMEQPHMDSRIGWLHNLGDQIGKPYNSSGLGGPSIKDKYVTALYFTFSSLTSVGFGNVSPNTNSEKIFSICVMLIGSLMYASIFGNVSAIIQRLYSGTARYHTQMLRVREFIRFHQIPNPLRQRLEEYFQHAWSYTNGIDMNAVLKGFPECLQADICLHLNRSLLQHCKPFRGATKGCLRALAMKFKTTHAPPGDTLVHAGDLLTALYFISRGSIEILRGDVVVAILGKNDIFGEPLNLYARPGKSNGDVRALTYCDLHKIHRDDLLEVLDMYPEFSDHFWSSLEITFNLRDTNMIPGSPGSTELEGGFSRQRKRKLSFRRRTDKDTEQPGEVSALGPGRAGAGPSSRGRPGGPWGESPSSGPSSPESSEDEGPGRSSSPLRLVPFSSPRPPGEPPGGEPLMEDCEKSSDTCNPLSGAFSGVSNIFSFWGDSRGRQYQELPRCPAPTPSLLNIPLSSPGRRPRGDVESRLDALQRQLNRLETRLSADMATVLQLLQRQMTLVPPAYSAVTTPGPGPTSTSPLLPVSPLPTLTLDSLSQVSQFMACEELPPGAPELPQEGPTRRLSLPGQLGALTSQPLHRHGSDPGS

Turning to `Cc1ccc(COC(=O)N2CC[C@H](CNc3ncccn3)C(F)(F)C2)cc1` [E1-22.2^B′], the IC50 in data set [1] (Table 1.3B) is > 10 µM and 17 µM. In addition, the “significantly reduced grooming through Day” value in data set [2] (first dose 3 mg/kg IP on Day 1) turned out to be 22 days. Also, the “acute effect on excessive self-grooming” value in data set [2] (20 min postdose) is reported as “significantly reduced grooming”. In addition, the “significantly reduced grooming through Day” value in data set [2] (setting [5]) is 19 days. For the same compound, in data set [3], the “effect on grooming on Day 3” value is listed as “significantly reduced grooming”, the “effect on grooming on Day 5” value was “comparable to the level in the vehicle-treated group”, the “effect on grooming on Day 1” value was “significantly reduced grooming” and the “acute effect on grooming on Day 1” value is reported as “significantly reduced grooming”. For the same compound, in data set [4] (20 min, pre-test time 20 min), the change in vivo at 3 mg/kg amounted to 163%, the change in vivo at 10 mg/kg came to 115% and the change in vivo at 30 mg/kg came out at 98.9%.
The compound `Cc1ccc(COC(=O)N2CC[C@H](CNc3cnc(C)cn3)C(F)(F)C2)cc1` [E1-21.26^B′] returned an inhibition at 5 min, 10 µM in data set [1] of 39%. In addition, the “effects lasting through Day after the fourth and final dose on Day 29” value in data set [2] (3 mg/kg IP on Days 1, 15, 22, 29) is 40 days. Further, the “effects lasting through Day after the fourth and final dose on Day 29” value in data set [2] (10 mg/kg IP on Days 1, 15, 22, 29) came to 43 days. Besides, the “tachyphylaxis with repeated weekly dosing” value in data set [2] was “without tachyphylaxis”. For the same compound, the “significantly reduced grooming through Day” value in data set [2] (first dose 3 mg/kg IP on Day 1) was determined as 5 days. In addition, the “significant reduction in grooming wore off by Day” value in data set [2] (first dose of 3 mg/kg IP) was determined as 8 days. Also, in data set [2] (20 min postdose), the “acute effect on excessive self-grooming” value is reported as “significantly reduced grooming”. In data set [3], the “acute effect on grooming on Day 1” value is “significantly reduced grooming”. For the same compound, in data set [4] (20 min, pre-test time 20 min), the change in vivo at 3 mg/kg came to 141%, the change in vivo at 10 mg/kg worked out at 149% and the change in vivo at 30 mg/kg worked out at 171%. In addition, in data set [4], the “pattern of the dose-response function for bouts of nose touching” value (from here on “pattern of the dose-response function”) is recorded as “dose-dependent increases”.
In turn, `FC(F)c1ccc(C(F)(F)CN2CCC(Nc3ncnc4[nH]ccc34)CC2)cc1` [C-179^A′] displayed an IC50 in data set [1] (Table 1.3A) of 1.4 µM. Besides, the “magnitude of the reduction in self-grooming” value (“magnitude of the reduction” below) in data set [2] (1 mg/kg IP, pre-spray) worked out at 43.6%. Moreover, the “magnitude of the reduction” value in data set [2] (3 mg/kg IP, pre-spray) came to 80.5%. Besides, the “magnitude of the reduction” value in data set [2] (10 mg/kg IP, pre-spray) turned out to be 91.7%. Moreover, the reductions in self-grooming in data set [2] (1, 3 and 10 mg/kg IP, post-spray) is 66.9% to 77.6%. In data set [2], the “tachyphylaxis with repeated weekly dosing” value was “no tachyphylaxis developed; also recorded: tachyphylaxis was not observed”. The “significantly reduced grooming through Day” value in data set [2] (first dose 3 mg/kg IP on Day 1) was 8 days. The “acute effect on excessive self-grooming” value in data set [2] (20 min postdose) is on record as “significantly reduced grooming; also recorded: markedly reduced excessive self-grooming”. Moreover, in data set [2] (single dose 0.32 mg/kg IP on Day 1), the “significantly reduced grooming through Day” value was determined as 5 days. Further, in data set [2] (single dose 0.56 mg/kg IP on Day 1), the “significantly reduced grooming through Day” value was 5 days. Moreover, the “significantly reduced grooming through Day” value in data set [2] (setting [5]) worked out at 5 days. In addition, the “sustained efficacy lasting for” value in data set [2] (single dose of 3 mg/kg IP) was found to be 1 week. Also, in data set [3], the “effect on grooming on Day 3” value was “significantly reduced grooming”, the “effect on grooming on Day 5” value is on record as “comparable to the level in the vehicle-treated group”, the “effect on grooming on Day 1” value is “significantly reduced grooming” and the “acute effect on grooming on Day 1” value was “significantly reduced grooming”. In addition, in data set [4] (0.25 h, pre-test time 15 min), the change in vivo at 0.3 mg/kg was -12%, the change in vivo at 1 mg/kg came out at 64.7% and the change in vivo at 30 mg/kg was determined as 28%. In data set [4] (20 min, pre-test time 20 min), the change in vivo at 0.3 mg/kg came to 51.7%, the change in vivo at 1 mg/kg was determined as 139% and the change in vivo at 3 mg/kg stood at 164%. Besides, the “pattern of the dose-response function” value in data set [4] is given as “inverted U-shaped dose-response function”.
Regarding `Cc1ccc(COC(=O)N2CC[C@H](CNc3nccn4cnnc34)C(F)(F)C2)cc1` [E1-1.2^B′], in data set [1] (Table 1.3B), the midpoint of inhibition, the IC50, lay at 40 µM. The inhibition at 5 min, 10 µM in data set [1] was found to be 17%. Also, the “magnitude of the reduction” value in data set [2] (3 mg/kg IP, 20 min postdose, pre- and post-spray) is given as 70%-80%; in data set [2] (10 mg/kg IP, 20 min postdose, pre- and post-spray), > 90%; in data set [2] (30 mg/kg IP, 20 min postdose, pre- and post-spray), > 90%. Besides, the “acute effect on excessive self-grooming” value in data set [2] (20 min postdose) is given as “markedly reduced excessive self-grooming”. Also, the change in vivo at 0.3 mg/kg in data set [4] (10 min, pre-test time 10 min) came to 16.1%. Further, in data set [4] (10 min, pre-test time 10 min), the change in vivo at 10 mg/kg amounted to 218%. In addition, in data set [4], the “pattern of the dose-response function” value is “dose-dependent increases”.
